Reference: patent US7071190B2, “Inhibitors to tubulin polymerization” (Rigel Pharmaceuticals, Inc., priority 2002, dated 2006)
Like-named read-outs stand apart in the source and are kept apart here.

Assays:
[1] = system: MAP-rich tubulin protein from bovine brain; assay: Tubulin polymerization turbidity assay (A340 over time); assay type: biochemical
Description: FIG. 1. Tubulin polymerization inhibitory activity of the compounds of the invention was assayed by following the turbidity of a tubulin-containing solution over time. Polymerization of tubulin generates microtubules, the presence of which increases the absorbance of the assay solution over time. Effective inhibition manifests as a reduction of rate of absorbance increase at 340 nanometers. (a) 10 μM of compounds 19, 39, 43, 54 and 62, as well as 10 μM nocodazole as a positive control and DMSO as a negative control. (b) 10 μM of compounds 1, 88, 95, and 54, as well as 10 μM as well a positive controls 1 and 2 and DMSO as a negative control. (c) 0.4, 2.0 and 10 μM compound 54 versus 0.4, 2.0 and 10 μM nocodazole as a positive control and DMSO as a negative control.
Measurement of the tubulin polymerization can be achieved using known methodologies. For example, assays for tubulin polymerization may be performed using a kit from Cytoskeleton (Denver, Colo.) and as described by Tahir, S. K., et al, (2001) Cancer Res., 61:5480–5.
The assay measures tubulin polymerization as an increase in turbidity (A340) over time. Assays for tubulin polymerization were performed using a kit from Cytoskeleton (Denver, Colo.) and as described by Tahir, S. K., et al, (2001) Cancer Res., 61: 5480–5, incorporated herein by reference, and as described below.
To determine the ability of the compounds to inhibit microtubule polymerization in vitro, the following protocol was followed: (i) 70 μl ice-cold MAP-rich tubulin protein from bovine brain (1.5 mg/ml final concentration) was added to polymerization buffer (80 mM PIPES pH6.8, 1 mM EGTA, 1 mM MgCl2, 1 mM GTP) in a quartz microcuvette; (ii) 0.7 μl of DMSO or 100X stock of control (nocodazole) or test compound (thienopyrimidine) in DMSO were added to the cuvette; (iii) the contents were mixed by pipefting gently; (iv) the polymerization reaction was initiated by placing the cuvette in pre-warmed (37° C.) cuvette holder in Beckman spectrophotometer; (v) the absorbance was monitored at 340 nm at 30 second intervals for 20 minutes. Tubulin polymerization result in increased turbidity in the reaction solution, which is registered as an increase in absorbance at 340 nm. Inhibitors of tubulin polymerization are detected by a reduction in the rate, the initial slope, and/or extent of the turbidity change (i.e., max. absorbance at 340 nm) in plots of ΔA340 versus time.

[2] = system: A549 cells; assay: Bromodeoxyuridine (BrdU) proliferation assay; assay type: cell-based, human; conditions: for IC50: BrdU ELISA 48 hours after addition of compound, tested 0.03-10 uM, cell line not given (A549 method; SW-480 and MDA-MB-231 also used), read-out: Assay Result (IC50μM); for Activity ranking: most active compounds of the invention / Activity ranking: particularly active examples of the compounds of the invention: antiproliferative activity
Description: In order to determine the antiproliferative activity of microtubule inhibitors, A549 cells were plated in 96 well plates at 2000 cells/well 24 hours prior to the addition of a compound of the invention in 80 ul growth media (F12K, 10% FBS, Pen/Strep). Prior to addition to cells, compounds were solubilized in 100% DMSO to 5 mM and serially diluted in 6 semi-log steps in 100% DMSO. The diluted compounds were added to cells by two 15.8-fold dilution steps, the first being a dilution into a 23% ethanol/H2O mixture and the second being a dilution into growth media. Finally, these dilutions were followed by a 1:1 dilution onto cells. The resulting final solvent concentration was 0.2% DMSO/0.75% ethanol. Compounds were tested at final concentrations of 10, 3, 1, 0.3, 0.1 and 0.03 uM. Forty-eight hours after the addition of compound, the effects on cellular proliferation were measured using a cell proliferation BrdU ELISA (Roche Molecular Biochemicals, Cat.#1 669 915).

[3] = 10 μM compound, FIG. 1 (a), (b)

| Structure (SMILES) | IC50 ([2]; Homo sapiens, A549, 48 h) [µM] | IC50 [2] [µM] | Inhibition of tubulin polymerization (reduction of rate of absorbance increase at 340 nanometers) [1, 3] | Activity ranking: most active compounds of the invention [2] | Activity ranking: particularly active examples of the compounds of the invention [2] | Inhibition of tubulin polymerization (reduction of rate of absorbance increase at 340 nanometers) ([1]; 0.4, 2.0 and 10 μM, FIG. 1 (c)) |
| --- | --- | --- | --- | --- | --- | --- |
| COc1ccc(OC)c(NC(=S)NNc2ncnc3cc(-c4ccccc4)sc23)c1 [Compound 16] | 0.998 |  |  | most active | particularly active |  |
| COCCNC(=S)NNc1ncnc2cc(-c3ccccc3Cl)sc12 [Compound 95] | 1.47 |  | Inhibition activity is observed |  | particularly active |  |
| Cc1cccc(-c2cc3ncnc(NNC(=S)NCC(O)CO)c3s2)c1 (stereo not drawn) [Compound 49] |  |  |  |  | particularly active |  |
| CCOC(=O)c1ccccc1NC(=S)NNc1ncnc2cc(-c3ccccc3)sc12 [Compound 10] | 1.33 |  |  |  | particularly active |  |
| FC(F)(F)c1ccccc1NC(=S)NNc1ncnc2cc(-c3ccccc3)sc12 [Compound 4] | 0.904 |  |  | most active | particularly active |  |
| COC(=O)Nc1nc2ccc(C(=O)c3cccs3)cc2[nH]1 [nocodazole, reference compound] |  |  | Inhibition activity is observed |  |  | Inhibition activity is observed |
| Cc1ccc(-c2cc3ncnc(NNC(N)=S)c3s2)cc1 [Compound 30] | 1.97 |  |  |  | particularly active |  |
| S=C(NCCN1CCCCC1)NNc1ncnc2cc(-c3ccccc3)sc12 [Compound 67] | 18.6 |  |  |  | particularly active |  |
| COc1cc([N+](=O)[O-])ccc1NC(=S)NNc1ncnc2cc(-c3ccccc3)sc12 [Compound 17] |  | 5.11 |  |  | particularly active |  |
| CNC(=S)NNc1ncnc2cc(-c3ccccc3)sc12 [Compound 70] | 1.61 |  |  |  | particularly active |  |
| COCCNC(=S)NNc1ncnc2cc(-c3cccc(C(F)(F)F)c3)sc12 [Compound 91] | 2.2 |  |  |  | particularly active |  |
| CCOC(=O)c1ccccc1NC(=S)NNc1ncnc2cc(-c3ccccc3)sc12 [Compound 11] |  | 2.2 |  |  | particularly active |  |

Now from value to compound, other results behind:

| IC50 ([2]; Homo sapiens, A549, 48 h) [µM] | IC50 [2] [µM] | Structure (SMILES) | Inhibition of tubulin polymerization (reduction of rate of absorbance increase at 340 nanometers) [1, 3] | Activity ranking: most active compounds of the invention [2] | Activity ranking: particularly active examples of the compounds of the invention [2] | Inhibition of tubulin polymerization (reduction of rate of absorbance increase at 340 nanometers) ([1]; 0.4, 2.0 and 10 μM, FIG. 1 (c)) |
| --- | --- | --- | --- | --- | --- | --- |
| 0.228 |  | S=C(NCC1CC1)NNc1ncnc2cc(-c3ccccc3)sc12 [Compound 62] | Inhibition activity is observed | most active | particularly active |  |
| 0.016 |  | Cc1cc(C)cc(-c2cc3ncnc(NNC(=S)NC4CC4)c3s2)c1 [Compound 54] | Inhibition activity is observed | most active | particularly active | Inhibition activity is observed |
| 0.039 |  | Cc1cccc(-c2cc3ncnc(NNC(=S)NC4CC4)c3s2)c1 [Compound 39] | Inhibition activity is observed | most active | particularly active |  |
| 0.438 |  | S=C(NNc1ncnc2cc(-c3ccccc3Cl)sc12)NC1CC1 [Compound 43] | Inhibition activity is observed | most active | particularly active |  |
| 0.089 |  | S=C(NNc1ncnc2cc(-c3ccccc3)sc12)NC1CC1 [Compound 19] | Inhibition activity is observed | most active | particularly active |  |
| 0.06 |  | COCCNC(=S)NNc1ncnc2cc(-c3cccc(C)c3)sc12 [Compound 88] | Inhibition activity is observed | most active | particularly active |  |
| 0.329 |  | COc1ccccc1NC(=S)NNc1ncnc2cc(-c3ccccc3)sc12 [Compound 6] |  | most active | particularly active |  |
| 0.369 |  | Cc1ccc(-c2cc3ncnc(NNC(=S)Nc4ccccc4)c3s2)cc1 [Compound 31] |  | most active | particularly active |  |
| 0.385 |  | COCCNC(=S)NNc1ncnc2cc(-c3ccc4c(c3)OCO4)sc12 [Compound 102] |  | most active | particularly active |  |
| 0.026 |  | Cc1cccc(-c2cc3ncnc(NNC(=S)NC(C)C)c3s2)c1 [Compound 86] |  | most active | particularly active |  |
| 0.151 |  | Cc1cccc(-c2cc3ncnc(NNC(=S)NC[C@@H]4CCCO4)c3s2)c1 [Compound 80] |  | most active | particularly active |  |
| 0.024 |  | CC(C)NC(=S)NNc1ncnc2cc(-c3ccccc3)sc12 [Compound 72] |  | most active | particularly active |  |
| 0.028 |  | COCCCNC(=S)NNc1ncnc2cc(-c3cccc(C)c3)sc12 [Compound 89] |  | most active | particularly active |  |
| 0.23 |  | S=C(NCc1ccccc1)NNc1ncnc2cc(-c3ccccc3)sc12 [Compound 57] |  | most active | particularly active |  |
| 0.02 |  | CCCNC(=S)NNc1ncnc2cc(-c3ccccc3)sc12 [Compound 71] |  | most active | particularly active |  |
| 0.166 |  | COCCNC(=S)NNc1ncnc2cc(-c3ccc(C)cc3)sc12 [Compound 87] |  | most active | particularly active |  |
| 0.211 |  | S=C(NCC1CCCO1)NNc1ncnc2cc(-c3ccccc3)sc12 (stereo not drawn) [Compound 63] |  | most active | particularly active |  |
